Experimental findings from US10039713B1, “Drug-loaded ganglioside micelle and the preparation method and use thereof” (Chongqing University, priority 2017, dated 2018) are described below.

Molecules are shown by their SMILES.

The test system of the series is blood brain barrier. Kind of series: Evaluation on intracranial blood brain barrier penetrating effect of a GM1 micelle (animal living body fluorescence imaging). It is filed as in vivo. The following applies: healthy mice, intravenous injection of tails, FIG. 2. How it is done:
According to the preparation method of DOX-GM1 in the example 1, a fluorescent dye DiR-GM1 mixed micelle was prepared according to the same method. DiR-GM1 micelle and free-DiR were intravenous injected of tails of the healthy mice. The distribution and strength of the DiR fluorescence in tissues are observed and recorded by the animal living body imagery at different time points.

Turning to `CCCCCCCCCCCCCCCCCCN1/C(=C/C=C/C=C/C=C/C2=[N+](CCCCCCCCCCCCCCCCCC)c3ccccc3C2(C)C)C(C)(C)c2ccccc21.[I-]` [DiR solution], the “entry into the brain / blood-brain barrier penetration” value is reported as “cannot enter the brain”. Moreover, the “fluorescence distribution (DiR) in tissues” value (in-vivo imaging at different time points) is listed as “concentrated in the liver”.
